Data from patent US9926297B2, “Bicyclic AZA compounds as muscarinic M1 receptor and/or M4 receptor agonists” (Heptares Therapeutics Limited, priority 2014, dated 2018).

Experiments:
[1] = target: T1, human muscarinic M1 receptor (Homo sapiens, UniProt P11229); assay: Alphascreen Surefire phospho-ERK1/2 functional assay, M1; format: cell-based; conditions: for EC50: read-out: pEC50 M1 (converted); for Emax: CHO, read-out: % Emax cf. ACh, M1, CHO cells stably expressing human M1; for Emax / % Emax cf. ACh, M1: relative to ACh
T1 sequence (P11229 1-460): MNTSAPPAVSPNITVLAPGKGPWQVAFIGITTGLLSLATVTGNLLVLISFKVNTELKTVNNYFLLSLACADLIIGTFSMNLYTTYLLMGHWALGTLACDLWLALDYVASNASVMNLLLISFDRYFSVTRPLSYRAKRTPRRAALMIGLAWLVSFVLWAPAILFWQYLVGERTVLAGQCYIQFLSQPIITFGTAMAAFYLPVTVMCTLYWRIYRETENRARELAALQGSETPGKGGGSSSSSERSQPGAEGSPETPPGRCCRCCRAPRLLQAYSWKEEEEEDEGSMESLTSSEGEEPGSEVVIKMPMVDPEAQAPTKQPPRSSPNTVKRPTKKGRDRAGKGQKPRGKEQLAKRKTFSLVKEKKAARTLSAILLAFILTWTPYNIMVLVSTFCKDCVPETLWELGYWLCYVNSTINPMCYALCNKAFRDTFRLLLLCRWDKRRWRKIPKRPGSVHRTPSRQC

[2] = target: T2, human muscarinic M4 receptor (Homo sapiens, UniProt P08173); assay: Alphascreen Surefire phospho-ERK1/2 functional assay, M4; format: cell-based; conditions: for EC50 / % Emax cf. ACh, M4: CHO cells stably expressing human M4; for EC50: phospho-ERK1/2, * = variable results, read-out: pEC50 M4 (converted); for Emax: CHO, read-out: % Emax cf. ACh, M4, CHO cells stably expressing human M4; for Emax / % Emax cf. ACh, M4: relative to ACh
T2 construct: expressed in transfected cells
T2 sequence (P08173 1-479): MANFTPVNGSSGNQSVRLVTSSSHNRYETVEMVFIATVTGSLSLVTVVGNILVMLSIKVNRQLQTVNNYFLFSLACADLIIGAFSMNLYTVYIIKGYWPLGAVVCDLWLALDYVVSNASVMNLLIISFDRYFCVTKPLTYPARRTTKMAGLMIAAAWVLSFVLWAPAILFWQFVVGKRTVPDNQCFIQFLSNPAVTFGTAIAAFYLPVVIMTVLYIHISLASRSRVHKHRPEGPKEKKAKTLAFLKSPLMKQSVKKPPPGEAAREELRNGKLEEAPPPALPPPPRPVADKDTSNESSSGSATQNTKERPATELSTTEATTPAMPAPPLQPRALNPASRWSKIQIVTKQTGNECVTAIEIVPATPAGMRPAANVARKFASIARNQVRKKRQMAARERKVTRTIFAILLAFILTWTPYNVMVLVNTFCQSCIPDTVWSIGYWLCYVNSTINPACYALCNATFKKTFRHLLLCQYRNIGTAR

[3] = CHO cells stably expressing human M1, phospho-ERK1/2, * = variable results
[4] = CHO cells stably expressing human M1

| Structure (SMILES) | EC50 [1, 3] | Emax [1] | EC50 [2] | Emax [2] | % Emax cf. ACh, M1 [1, 4] | % Emax cf. ACh, M4 [2] | pEC50 M1 [1, 3] |
| --- | --- | --- | --- | --- | --- | --- | --- |
| CCOC(=O)N1CCC2(CC(N3CCC(N4CCCC4c4ccon4)CC3)C2)C1 (single isomer, unassigned) [2-127 Isomer 2, ethyl 2-{4-[2-(1,2-oxazol-3-yl)pyrrolidin-1-yl]piperidin-1-yl}-6-azaspiro[3.4]octane-6-carboxylate] | > 20000 nM | 11% | 10 nM | 72% | – | – | – |
| CCOC(=O)N1CCC2(CC(N3CCC(N4CCCC4c4nnn[nH]4)CC3)C2)C1 (single isomer, unassigned) [2-128 Isomer 2, ethyl 2-{4-[2-(1H-tetrazol-5-yl)pyrrolidin-1-yl]piperidin-1-yl}-6-azaspiro[3.4]octane-6-carboxylate] | 10000 nM | 89% | 1580 nM | 104% | – | – | – |
| CCOC(=O)N1CCC2(CC(N3CCC(N4CCCC4c4nnn(C)n4)CC3)C2)C1 (single isomer, unassigned) [2-129 Isomer 2, ethyl 2-{4-[2-(2-methyl-2H-tetrazol-5-yl)pyrrolidin-1-yl]piperidin-1-yl}-6-azaspiro[3.4]octane-6-carboxylate] | > 20000 nM | 12% | 100 nM | 55% | – | – | – |
| CCOC(=O)N1CCC2(CC(N3CCC(N4CCCC4c4nnnn4C)CC3)C2)C1 (single isomer, unassigned) [2-130 Isomer 1, ethyl 2-{4-[2-(1-methyl-1H-tetrazol-5-yl)pyrrolidin-1-yl]piperidin-1-yl}-6-azaspiro[3.4]octane-6-carboxylate] | 316 nM | – | 12.6 nM | – | 42% | 20% | – |
| CCOC(=O)N1CCC2(CC(N3CCC(N4CCCC4c4nnnn4C)CC3)C2)C1 (single isomer, unassigned) [2-130 Isomer 2, ethyl 2-{4-[2-(1-methyl-1H-tetrazol-5-yl)pyrrolidin-1-yl]piperidin-1-yl}-6-azaspiro[3.4]octane-6-carboxylate] | > 20000 nM | – | 63.1 nM | – | 11% | 66% | – |
| CCOC(=O)N1CCC2(CC(N3CCC(N4CCC[C@@H]4c4cccs4)CC3)C2)C1 (single isomer, unassigned) [2-131 Isomer 2] | 501 nM | 61% | 158 nM | 108% | – | – | – |
| CCOC(=O)N1CCC2(CC(N3CCC(N4CCC[C@@H]4c4nccs4)CC3)C2)C1 (single isomer, unassigned) [2-132 Isomer 2] | > 20000 nM | 18% | 12.6 nM | 72% | – | – | – |
| CCOC(=O)N1CCC2(CC(N3CCC([C@@H]4CCCN4C(=O)N4Cc5cccnc5C4)CC3)C2)C1 (single isomer, unassigned) [2-133 Isomer 1] | > 20000 nM | – | 10 nM | – | 37% | 70% | – |
| CCOC(=O)N1CCC2(CC(N3CCC([C@@H]4CCCN4C(=O)N4Cc5cccnc5C4)CC3)C2)C1 (single isomer, unassigned) [2-133 Isomer 2] | 79.4 nM | – | 0.631 nM | – | 69% | 118% | – |
| CCOC(=O)N1CCC2(CC(N3CCC(N4C[C@H](F)C[C@@H]4C(=O)OC)CC3)C2)C1 (single isomer, unassigned) [2-134 Isomer 2] | > 20000 nM | 18% | 63.1 nM | 95% | – | – | – |
| CCOC(=O)N1CCC2(CC(N3CCC(N4C[C@@H](F)C[C@@H]4C(=O)OC)CC3)C2)C1 (single isomer, unassigned) [2-135 Isomer 2] | > 20000 nM | 15% | 12.6 nM | 90% | – | – | – |
| CCOC(=O)N1CCC2(CC(N3CCC(N4C[C@H](F)C[C@@H]4CO)CC3)C2)C1 (single isomer, unassigned) [2-136 Isomer 2] | 631 nM | – | 12.6 nM | – | – | – | – |
| CCOC(=O)N1CCC2(CC(N3CCC(N4C[C@@H](F)C[C@@H]4CO)CC3)C2)C1 (single isomer, unassigned) [2-137 Isomer 2] | 1000 nM | 78% | 39.8 nM | 111% | – | – | – |
| CCOC(=O)N1CCC2(CC(N3CCC([C@@H]4CCCN4c4nnc(C)o4)CC3)C2)C1 (single isomer, unassigned) [2-138 Isomer 2] | > 20000 nM | 17% | 39.8 nM | 44% | – | – | – |
| CCOC(=O)N1CCC2(CC(N3CCC(c4cnc(OC)c(C)c4)CC3)C2)C1 (single isomer, unassigned) [3-7 Isomer 2, ethyl 2-[4-(6-methoxy-5-methylpyridin-3-yl)piperidin-1-yl]-6-azaspiro[3.4]octane-6-carboxylate] | > 20000 nM | 40% | 100 nM | 39% | – | – | – |
| CCOC(=O)N1CCC2(CC(N3CCC(c4c(C)ccnc4OC)CC3)C2)C1 (single isomer, unassigned) [3-11 Isomer 2, ethyl 2-[4-(2-methoxy-4-methylpyridin-3-yl)piperidin-1-yl]-6-azaspiro[3.4]octane-6-carboxylate] | 39.8 nM | 36% | 25.1 nM | 58% | – | – | – |
| CCOC(=O)N1CCC2(CC(N3CCC(c4c(C)cc[nH]c4=O)CC3)C2)C1 (single isomer, unassigned) [3-14 Isomer 1, ethyl 2-[4-(4-methyl-2-oxo-1,2-dihydropyridin-3-yl)piperidin-1-yl]-6-azaspiro[3.4]octane-6-carboxylate] | 3160 nM | – | 501 nM | 65% | 65% | – | – |
| CCOC(=O)N1CCC2(CC(N3CCC(c4c(C)cc[nH]c4=O)CC3)C2)C1 (single isomer, unassigned) [3-14 Isomer 2, ethyl 2-[4-(4-methyl-2-oxo-1,2-dihydropyridin-3-yl)piperidin-1-yl]-6-azaspiro[3.4]octane-6-carboxylate] | – | – | 251 nM | – | 29% | 75% | 5.5 |
| CCOC(=O)N1CCC2(CC(N3CCC(c4cc(C)c[nH]c4=O)CC3)C2)C1 (single isomer, unassigned) [3-15 Isomer 2, ethyl 2-[4-(5-methyl-2-oxo-1,2-dihydropyridin-3-yl)piperidin-1-yl]-6-azaspiro[3.4]octane-6-carboxylate] | 251 nM | 60% | 39.8 nM | 36% | – | – | – |
| CCOC(=O)N1CCC2(CC(N3CCC(c4cc[nH]c(=O)c4)CC3)C2)C1 (single isomer, unassigned) [3-16 Isomer 2, ethyl 2-[4-(2-oxo-1,2-dihydropyridin-4-yl)piperidin-1-yl]-6-azaspiro[3.4]octane-6-carboxylate] | 7940 nM | 39% | 2510 nM | 47% | – | – | – |
| CCOC(=O)N1CCC2(CC(N3CCC(C4CCCNC4=O)CC3)C2)C1 (single isomer, unassigned) [4-1 Isomer 2, ethyl 2-(2-oxo-3,4′-bipiperidin-1′-yl)-6-azaspiro[3.4]octane-6-carboxylate] | > 20000 nM | – | 69.2 nM | – | 10% | 47% | – |
| COC(=O)N1CCC2(CC(N3CCC(C4CCCNC4=O)CC3)C2)C1 (single isomer, unassigned) [4-2 Isomer 4, methyl 2-(2-oxo-3,4′-bipiperidin-1′-yl)-6-azaspiro[3.4]octane-6-carboxylate] | 794 nM | 94% | 79.4 nM | 42% | – | – | – |
| CCOC(=O)N1CCC2(CC(N3CCC(N4CCCCC4)CC3)C2)C1 (single isomer, unassigned) [4-10 Isomer 2, ethyl 2-(1,4′-bipiperidin-1′-yl)-6-azaspiro[3.4]octane-6-carboxylate] | > 20000 nM | 7% | 251 nM | 31% | – | – | – |
| CCOC(=O)N1CCC2(CC(N3CCC(N4CCOCC4)CC3)C2)C1 (single isomer, unassigned) [4-11 Isomer 2, ethyl 2-[4-(morpholin-4-yl)piperidin-1-yl]-6-azaspiro[3.4]octane-6-carboxylate] | > 20000 nM | 54% | 200 nM | 55% | – | – | – |
| CCOC(=O)N1CCC2(CC(N3CCC(N4CCCC[C@@H]4C(=O)NC)CC3)C2)C1 (single isomer, unassigned) [4-16 Isomer 2] | 1000 nM | 94% | 158 nM | 105% | – | – | – |
